Patent US12643893B2, “Heteroaryl-pyridinium compound and redox flow battery comprising the same” (Korea Advanced Institute of Science and Technology, priority 2021, dated 2026)
Like-named read-outs stand apart in the source and are kept apart here.

Key:
[1] = Cyclic voltammetry (CV) in three-electrode cells; assay type: physicochemical; conditions: for Formal potential (E^o′): CV, 4 mM in 0.1 M TBATFSI/MeCN
Experimental: All electrochemical examinations were carried out using a Biologic VMP3 electrochemical workstation in an Ar-filled glove box (MOTek, negligible O2 and H2O, tested by the ketyl solution).
Cyclic voltammetry (CV) was conducted in three-electrode cells comprised of glassy carbon (GC; diameter (d)=3 mm) as the working electrode (WE), a platinum wire as the counter electrode (CE), and a leak-free Ag/AgCl as the reference electrode (RE). The GC electrodes were polished using alumina slurry before testing (ALS Co., Ltd).
After CV analysis, ferrocene (Fc, ferrocene, 98%, Sigma-Aldrich) was added to the cell to measure its redox potential, and the measured sample potential was converted to the Fc/Fc^+.

[2] = Radical stability, UV-Vis time-dependent concentration decay; assay type: physicochemical; conditions: for time-dependent concentration decay of the radical: in 0.5 M TBATFSI/MeCN
Excerpt: FIG. 10—Radical stability of TMAP-BTP^·+ and BTP^·. (a-b) UV-Vis spectra of (a) TMAP-BTP^·+ and (b) BTP^· in 0.5 M TBATFSI/MeCN. (c-d) Calculated time-dependent concentration decay of (c) TMAP-BTP^·+ (0.22%/day) and (d) BTP (0.63%/day). Better stability of TMAP-BTP^·+ than BTP^· is presumably attributed to the cationic TMAP groups, which repel the redox molecules and prevent chemical reactions.

[3] = expected from the permeability
[4] = Rotating disk electrode LSV, diffusion coefficient (Levich equation); assay type: physicochemical; conditions: 0.1 M TBATFSI/MeCN
Experimental: To measure diffusion coefficient (D), rotating disk electrode (RDE; ALS Co., Ltd) measurements were conducted with the same three-electrode cells. […] Limited mass-transport provides a current plateau (iL) of redox processes, which is linearly proportional to the square root of the rotating rates (ω^1/2). The diffusion coefficient (D) was calculated by plotting IL as a function of ω^1/2 and through the Levich equation (equation S1). iL=0.620nFAD^2/3ω^1/2η^−1/6Co (equation S1)
where IL is the limiting current (A cm^−2), n is the number of electrons transferred during the redox reaction, F is the Faraday's constant (96485 C mol^−1), A is the area of the electrode (0.0707 cm^2), D is the diffusion coefficient (cm^2 […]), ω is the angular rotation rate (rad s^−1), η is the kinematic viscosity (0.00442 cm^2 s^−1, referred to 0.1 M TBAPF6/MeCN), and Co is the concentration of the sample chemical.

[5] = Electron-transfer rate from CV curves (Nicholson method); assay type: physicochemical; conditions: 0.1 M TBATFSI/MeCN
Experimental: The electron-transfer rate (k^0) was calculated from CV curves and using the Nicholson method(equation S2).
where k^o is the electron-transfer constant (cm/s), D is the diffusion coefficient estimated from the above RDE studies, R is the gas constant (8.314 J K^−1 mol^−1), T is the temperature (298 K), v is the scan rate of the CVs (mV s^−1).
The Ψ value was obtained by Kingler and Kochi relation (equation S3).
where ΔEp is the peak-to-peak potential for the corresponding reduction or oxidation event.

cyclability in the CV profile ([1]; 100 CV cycles, FIGS. 6 and 7) | time-dependent concentration decay of the radical [2] | time required for 10% decay associated with the crossover [3] | time required for 10% decay associated with the crossover ([3]; listed as BTP^·) | Formal potential (E^o′) ([1]; first redox event (single event for BTMAP-Fc)) | peak-to-peak potential difference (ΔEp) ([1]; maintained for 100 CV cycles) | anodic-to-cathodic peak current ratio (Ipa/Ipc) ([1]; preserved during 100 CV cycles) | Formal potential (E^o′) ([1]; second redox event) | diffusion coefficient (D) [4] | electron-transfer constant (k^o) [5] | time the reduced form remained stable in the electrolyte solution ([2]; electrolyte solution) | time required for 10% decay associated with the crossover ([3]; listed as TMAP-BTP^·+) | Structure (SMILES)
excellent cyclability | 0.63 %/day | 0.047 year | 0.0065 year |  |  |  |  |  |  |  |  | C[n+]1ccc(-c2nc3ccccc3s2)cc1 [BTP^+]
 | 0.22 %/day | 0.37 year |  | −1.19 V vs. Fc/Fc^+ | 105 mV | close to unity | −1.87 V vs. Fc/Fc^+ | 1.91×10^−6 cm^2 s^−1 | ~0.1 cm/s | 4 days | 0.094 year | C[N+](C)(C)CCC[n+]1ccc(-c2nc3ccccc3s2)cc1 [TMAP-BTP^2+]
